Test results reported in patent EP4817425A1, “COMPOSITION AND SOLID MOLDED BODY” (Nagase & Co., Ltd., priority 2023, dated 2025).

Experiment: Screening test of saccharides: thickness of tableted product tableted to hardness 5 N
Assay type: physicochemical
Settings: protein powder and saccharide weight ratio 1:1, tableted to hardness 5 N; compared among eight saccharides (Fig. 1)
From the text: The tableting characteristics of various saccharides were confirmed, and saccharides suitable for the production of a solid molded body were screened. First, 2.0 g each (within an error of 0.003 g) of a protein powder (WPC392 manufactured by Fonterra Japan Limited) and any one of the saccharides shown below were weighed and mixed to prepare a composition containing 50 parts by weight each of the protein and the saccharide (weight ratio 1:1). Each of the obtained compositions was tableted with the tableting force appropriately adjusted so that the composition would have a hardness of 5 N after being tableted. As a result, a tableted product having a hardness of 5 N was obtained. The thickness of the obtained tableted product was measured. Note that in the Examples, the thicknesses of a tableted product and a solid molded body are values each measured using a caliper (ABS digimatic caliper CD-AX, manufactured by Mitutoyo Corporation), and the hardnesses of a tableted product and a solid molded body are values each measured using a load cell type tablet hardness tester (PC-30 manufactured by OKADA SEIKO CO., LTD.).

thickness of the tableted product: largest thickness
SMILES: OC[C@H]1O[C@H](O[C@H]2[C@H](O)[C@@H](O)C(O)O[C@@H]2CO)[C@H](O)[C@@H](O)[C@@H]1O (mixture of isomers) [maltose, Maltose]
